Series [1] concerns the target T1, CB1 (Homo sapiens, UniProt P21554). Briefly: CB1 Gαq16-coupled intracellular calcium mobilization assay in CHO-K1 cells. The series is classed as cell-based. A general note: Calcium assays in cells follow changes in intracellular calcium, usually with a dye or a luminescent sensor.
A short description of series [2]: In vivo evaluation of brain penetration. On the set-up: species or system rats. As to conditions: 10 mg/kg; for bioavailable with oral or intra-peritoneal dosing: oral or ip.
For series [3], the target named is T1, CB1. Briefly: Radioligand displacement of [3H]CP55940 at CB1. The conditions noted are these: Ki vs CP55940. Type of series: binding. On the technique in general: Displacement assays read how much labelled ligand stays bound in the presence of the test substance.

T1 sequence (P21554 whole entry): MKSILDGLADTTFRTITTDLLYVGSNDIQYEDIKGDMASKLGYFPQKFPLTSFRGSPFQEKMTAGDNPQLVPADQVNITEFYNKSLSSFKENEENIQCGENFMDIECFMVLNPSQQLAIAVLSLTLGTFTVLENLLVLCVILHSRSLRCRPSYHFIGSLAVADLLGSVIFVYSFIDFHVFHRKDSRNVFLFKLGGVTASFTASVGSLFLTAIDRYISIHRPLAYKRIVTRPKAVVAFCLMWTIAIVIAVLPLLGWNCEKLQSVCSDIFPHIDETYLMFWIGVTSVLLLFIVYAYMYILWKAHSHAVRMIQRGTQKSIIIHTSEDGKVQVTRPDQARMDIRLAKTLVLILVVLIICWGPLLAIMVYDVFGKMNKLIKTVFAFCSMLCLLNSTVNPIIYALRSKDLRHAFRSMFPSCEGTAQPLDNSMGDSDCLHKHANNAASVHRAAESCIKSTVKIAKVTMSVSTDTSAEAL

With `Cc1c(C(=O)N2CCC(C(=O)O)(c3ccccc3)CC2)nn(-c2ccc(Cl)cc2Cl)c1-c1ccc(Cl)cc1` [Compound 10, 1-{[5-(4-Chlorophenyl)-1-(2,4-dichlorophenyl)-4-methyl-1H-pyrazol-3-yl]carbonyl}-4-phenylpiperidine-4-carboxylic acid], on CB1 [1], the Kb was 1170 nM. For `Cc1c(C(=O)N2CCC(NC(=O)NC(C)(C)C)(c3ccccc3)CC2)nn(-c2ccc(Cl)cc2Cl)c1-c1ccc(Cl)cc1` [Compound 17a, 3-tert-Butyl-1-(1-{[5-(4-chlorophenyl)-1-(2,4-dichlorophenyl)-4-methyl-1H-pyrazol-3-yl]carbonyl}-4-phenylpiperidin-4-yl)urea], the “Brain Conc.” value in series [2] (Oral, 60 min, unperfused brain) is reported as “below the lower limit of quantitation”. Moreover, the “bioavailable with oral or intra-peritoneal dosing” value in series [2] is on record as “bioavailable”. Regarding `Cc1c(C(=O)N2CCC(NC(=O)NCc3ccccc3)(c3ccccc3)CC2)nn(-c2ccc(Cl)cc2Cl)c1-c1ccc(Cl)cc1` [Compound 17b, 1-Benzyl-3-(1-{[5-(4-chlorophenyl)-1-(2,4-dichlorophenyl)-4-methyl-1H-pyrazol-3-yl]carbonyl}-4-phenylpiperidin-4-yl)urea], the “Ke (nM) CB1” value on CB1 [1] (apparent dissociation affinity constant, rightward shift of CP55940 curve) was determined as 2.09 nM. As for `Cc1c(C(=O)N2CCC(NC(=O)Nc3ccc(N(C)C)cc3)(c3ccccc3)CC2)nn(-c2ccc(Cl)cc2Cl)c1-c1ccc(Cl)cc1` [Compound 17e, 3-(1-{[5-(4-Chlorophenyl)-1-(2,4-dichlorophenyl)-4-methyl-1H-pyrazol-3-yl]carbonyl}-4-phenylpiperidin-4-yl)-1-[4-(dimethylamino)phenyl]urea], the Kb at CB1 [1] is 264 nM. As to `Cc1c(C(=O)NC2CCN(C(=O)OC(C)(C)C)CC2)nn(-c2ccc(Cl)cc2Cl)c1-c1ccc(Cl)cc1` [Compound 18a, tert-Butyl-4-[5-(4-chlorophenyl)-1-(2,4-dichlorophenyl)-4-methyl-1H-pyrazole-3-amido]piperidine-1-carboxylate], the “bioavailable with oral or intra-peritoneal dosing” value in series [2] is recorded as “bioavailable”. With `Cc1c(C(=O)NC2CCNCC2)nn(-c2ccc(Cl)cc2Cl)c1-c1ccc(Cl)cc1` [Compound 18b, 5-(4-Chlorophenyl)-1-(2,4-dichlorophenyl)-4-methyl-N-(piperidin-4-yl)-1H-pyrazole-3-carboxamide], the Kb at CB1 [1] was found to be 5110 nM.

On to `CC(=O)N1CCC(NC(=O)c2nn(-c3ccc(Cl)cc3Cl)c(-c3ccc(Cl)cc3)c2C)CC1` [Compound 18c, N-(1-Acetylpiperidin-4-yl)-5-(4-chlorophenyl)-1-(2,4-dichlorophenyl)-4-methyl-1H-pyrazole-3-carboxamide], for which the Kb at CB1 [1] turned out to be 195 nM. As to `Cc1c(C(=O)NC2CCN(S(C)(=O)=O)CC2)nn(-c2ccc(Cl)cc2Cl)c1-c1ccc(Cl)cc1` [Compound 18d, 5-(4-Chlorophenyl)-1-(2,4-dichlorophenyl)-N-(1-methanesulfonylpiperidin-4-yl)-4-methyl-1H-pyrazole-3-carboxamide], the Kb on CB1 [1] was 269 nM. As for `Cc1c(C(=O)NC2CCN(S(N)(=O)=O)CC2)nn(-c2ccc(Cl)cc2Cl)c1-c1ccc(Cl)cc1` [Compound 18e, 5-(4-Chlorophenyl)-1-(2,4-dichlorophenyl)-4-methyl-N-(1-sulfamoylpiperidin-4-yl)-1H-pyrazole-3-carboxamide], the Kb on CB1 [1] turned out to be 592 nM. On to `Cc1c(C(=O)NC2CCN(C(=O)NC(C)(C)C)CC2)nn(-c2ccc(Cl)cc2Cl)c1-c1ccc(Cl)cc1` [Compound 18f, 1-N-tert-Butyl-4-C-5-(4-chlorophenyl)-1-(2,4-dichlorophenyl)-4-methyl-1H-pyrazole-3-piperidine-1,4-diamido], for which, in series [2], the “bioavailable with oral or intra-peritoneal dosing” value is on record as “bioavailable”. Consider `CCOC(=O)N1CCC(NC(=O)c2nn(-c3ccc(Cl)cc3Cl)c(-c3ccc(Cl)cc3)c2C)CC1` [Compound 18l, Ethyl-4-[5-(4-chlorophenyl)-1-(2,4-dichlorophenyl)-4-methyl-1H-pyrazole-3-amido]piperidine-1-carboxylate], for which the Kb at CB1 [1] worked out at 3 nM. For `Cc1c(C(=O)N[C@H]2CCCN(C(=O)OC(C)(C)C)C2)nn(-c2ccc(Cl)cc2Cl)c1-c1ccc(Cl)cc1` [Compound 19a, tert-Butyl-(3S)-3-[5-(4-chlorophenyl)-1-(2,4-dichlorophenyl)-4-methyl-1H-pyrazole-3-amido]piperidine-1-carboxylate], the Kb on CB1 [1] was 842 nM.

Take `Cc1c(C(=O)N[C@H]2CCCNC2)nn(-c2ccc(Cl)cc2Cl)c1-c1ccc(Cl)cc1` [Compound 19b, 5-(4-Chlorophenyl)-1-(2,4-dichlorophenyl)-4-methyl-N-[(3S)-piperidin-3-yl]-1H-pyrazole-3-carboxamide]: the Kb at CB1 [1] stood at 1880 nM. For `Cc1c(C(=O)N[C@H]2CCCN(S(C)(=O)=O)C2)nn(-c2ccc(Cl)cc2Cl)c1-c1ccc(Cl)cc1` [Compound 19d, 5-(4-Chlorophenyl)-1-(2,4-dichlorophenyl)-N-[(3S)-1-methanesulfonylpiperidin-3-yl]-4-methyl-1H-pyrazole-3-carboxamide], on CB1 [1], the Kb stood at 62 nM. In addition, the “selectivity for CB1 versus CB2” value on CB1 [3] is on record as “over 100 fold”. With `CCNC(=O)N1CCC[C@H](NC(=O)c2nn(-c3ccc(Cl)cc3Cl)c(-c3ccc(Cl)cc3)c2C)C1` [Compound 19e, (3S)-3-C-5-(4-Chlorophenyl)-1-(2,4-dichlorophenyl)-4-methyl-1H-pyrazole-3-1-N-ethylpiperidine-1,3-diamido], the Kb at CB1 [1] came to 280 nM. Still for that read-out and setting: as for `Cc1c(C(=O)N[C@H]2CCCN(C(=O)NC(C)C)C2)nn(-c2ccc(Cl)cc2Cl)c1-c1ccc(Cl)cc1` [Compound 19f, (3S)-3-C-5-(4-Chlorophenyl)-1-(2,4-dichlorophenyl)-4-methyl-1H-pyrazole-3-1-N-(propan-2-yl)piperidine-1,3-diamido], the figure is 265 nM; as for `CCCCNC(=O)N1CCC[C@H](NC(=O)c2nn(-c3ccc(Cl)cc3Cl)c(-c3ccc(Cl)cc3)c2C)C1` [Compound 19h, (3S)-1-N-Butyl-3-C-5-(4-chlorophenyl)-1-(2,4-dichlorophenyl)-4-methyl-1H-pyrazole-3-piperidine-1,3-diamido], 230 nM. With `Cc1c(C(=O)N[C@H]2CCCN(C(=O)NC(C)(C)C)C2)nn(-c2ccc(Cl)cc2Cl)c1-c1ccc(Cl)cc1` [Compound 19i, (3S)-1-N-tert-Butyl-3-C-5-(4-chlorophenyl)-1-(2,4-dichlorophenyl)-4-methyl-1H-pyrazole-3-piperidine-1,3-diamido], the Kb at CB1 [1] amounted to 206 nM. `Cc1c(C(=O)N[C@@H]2CCCNC2)nn(-c2ccc(Cl)cc2Cl)c1-c1ccc(Cl)cc1` [Compound 20b, 5-(4-Chlorophenyl)-1-(2,4-dichlorophenyl)-4-methyl-N-[(3R)-piperidin-3-yl]-1H-pyrazole-3-carboxamide]: at CB1 [1], the Kb was 1170 nM. As for `CC(=O)N1CCC[C@@H](NC(=O)c2nn(-c3ccc(Cl)cc3Cl)c(-c3ccc(Cl)cc3)c2C)C1` [Compound 20c, N-[(3R)-1-Acetylpiperidin-3-yl]-5-(4-chlorophenyl)-1-(2,4-dichlorophenyl)-4-methyl-1H-pyrazole-3-carboxamide], the Kb on CB1 [1] amounted to 530 nM. `CCNC(=O)N1CCC[C@@H](NC(=O)c2nn(-c3ccc(Cl)cc3Cl)c(-c3ccc(Cl)cc3)c2C)C1` [Compound 20e, (3R)-3-C-5-(4-Chlorophenyl)-1-(2,4-dichlorophenyl)-4-methyl-1H-pyrazole-3-1-N-ethylpiperidine-1,3-diamido]: on CB1 [1], the Kb is 171 nM. As for `CCCCNC(=O)N1CCC[C@@H](NC(=O)c2nn(-c3ccc(Cl)cc3Cl)c(-c3ccc(Cl)cc3)c2C)C1` [Compound 20h, (3R)-1-N-Butyl-3-C-5-(4-chlorophenyl)-1-(2,4-dichlorophenyl)-4-methyl-1H-pyrazole-3-piperidine-1,3-diamido], the Kb at CB1 [1] stood at 118 nM.

Consider `Cc1c(C(=O)N[C@@H]2CCCN(C(=O)NC(C)(C)C)C2)nn(-c2ccc(Cl)cc2Cl)c1-c1ccc(Cl)cc1` [Compound 20i, (3R)-1-N-tert-Butyl-3-C-5-(4-chlorophenyl)-1-(2,4-dichlorophenyl)-4-methyl-1H-pyrazole-3-piperidine-1,3-diamido], for which the Kb on CB1 [1] stood at 268 nM. For the molecule `CCNC(=O)NCC1CCC(CNC(=O)c2nn(-c3ccc(Cl)cc3Cl)c(-c3ccc(Cl)cc3)c2C)CC1` (stereo not drawn) [Compound 21a, 5-(4-Chlorophenyl)-1-(2,4-dichlorophenyl)-N-[(4-{[(ethylcarbamoyl)amino]methyl}cyclohexyl)methyl]-4-methyl-1H-pyrazole-3-carboxamide], the Kb at CB1 [1] is 135 nM.

Turning to `Cc1c(C(=O)NCC2CCC(CNC(=O)NC(C)C)CC2)nn(-c2ccc(Cl)cc2Cl)c1-c1ccc(Cl)cc1` (stereo not drawn) [Compound 21b, 5-(4-Chlorophenyl)-1-(2,4-dichlorophenyl)-4-methyl-N-{[4-({[(propan-2-yl)carbamoyl]amino}methyl)cyclohexyl]methyl}-1H-pyrazole-3-carboxamide], the Kb on CB1 [1] turned out to be 351 nM. Turning to `CCCNC(=O)NCC1CCC(CNC(=O)c2nn(-c3ccc(Cl)cc3Cl)c(-c3ccc(Cl)cc3)c2C)CC1` (stereo not drawn) [Compound 21c, 5-(4-Chlorophenyl)-1-(2,4-dichlorophenyl)-4-methyl-N-[(4-{[(propylcarbamoyl)amino]methyl}cyclohexyl)methyl]-1H-pyrazole-3-carboxamide], at CB1 [1], the Kb was 486 nM.

For `CCCCNC(=O)NCC1CCC(CNC(=O)c2nn(-c3ccc(Cl)cc3Cl)c(-c3ccc(Cl)cc3)c2C)CC1` (stereo not drawn) [Compound 21d, N-[(4-{[(Butylcarbamoyl)amino]methyl}cyclohexyl)methyl]-5-(4-chlorophenyl)-1-(2,4-dichlorophenyl)-4-methyl-1H-pyrazole-3-carboxamide], the Kb on CB1 [1] was determined as 274 nM. Regarding `Cc1c(C(=O)NCC2CCC(CNC(=O)NC(C)(C)C)CC2)nn(-c2ccc(Cl)cc2Cl)c1-c1ccc(Cl)cc1` (stereo not drawn) [Compound 21e, N-[(4-{[(tert-Butylcarbamoyl)amino]methyl}cyclohexyl)methyl]-5-(4-chlorophenyl)-1-(2,4-dichlorophenyl)-4-methyl-1H-pyrazole-3-carboxamide], at CB1 [1], the Kb was 150 nM.

(Values after paper PMC3319116 (Journal of Medicinal Chemistry, 2012).)
